In US20260306460A1, “COMPOSITION FOR REMOVING AND INHIBITING SENESCENT CELLS, AND USES THEREOF” (LIFECEUTIX CO., LTD., priority 2023, published 2026):

Legend:
[1] = tested on: naturally aged C57BL6J mice; type: in vivo, mouse; conditions: mouse, in vivo
[2] = tested on: naturally aged mice; assay: Anti-aging evaluation in naturally aged mice, Example 31, Table 55; type: in vivo, mouse;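 note: Vehicle-dosed control mice received solution alone at matching volume, values compare test-compound-treated aged mice against that control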
[3] = tested on: bleomycin-induced pulmonary fibrosis mice; assay: Bleomycin-induced pulmonary fibrosis mice, Example 31, Table 56; type: in vivo, mouse; conditions: untreated = 100%
Method: (§1) The control group was administered only the solution in the same volume. After the end of drug administration, the method described in each example below was performed. Liver, kidney, skin, knee joint, heart, and femur tissues were collected from mice in which natural aging was induced in the same manner as in Examples 7-2 and 7-6 of WO2023-085787 A1. Lung tissues were collected from mice in which pulmonary fibrosis was induced using the same method as in Example 24-1. Liver tissues were collected from mice in which hepatic fibrosis was induced using the same method as in Example 26, and total RNA was extracted. qRT-PCR was performed and analyzed using the synthesized cDNA. […] The mRNA amounts of p16, MMP3, and IL6 after natural aging was induced were calculated as 100% and compared with the mRNA amounts of p16, MMP3, and IL6 after treatment with the test compound. In addition, an open field test for the analysis of aging-related frailty, agtr1a mRNA analysis for kidney damage and disease evaluation, col1a1 and SDF1 mRNA analysis for skin aging evaluation such as wrinkles/loss of elasticity/hyperpigmentation, col2a1 mRNA analysis for evaluating joint aging such as osteoarthritis, sur2a mRNA analysis for evaluating cardiac aging such as decreased cardiac load resistance, ctsk mRNA analysis for evaluating bone diseases due to aging such as osteoporosis, muscle tissue weight for analyzing sarcopenia, fat tissue weight for analyzing lipoatrophy, and cataract incidence analysis were performed in mice. For cataract incidence analysis, the drug was administered twice a week under the conditions specified above, and biweekly examinations were conducted until death.
The table below quantitatively presents the evaluation results for each item in mice with bleomycin-induced pulmonary fibrosis, untreated and treated with the test compound.

[4] = tested on: carbon tetrachloride-induced liver fibrosis mice; assay: Carbon tetrachloride-induced liver fibrosis mice, Example 31, Table 57; type: in vivo, mouse; conditions: CCl4-induced liver fibrosis mice, untreated = 100%
Method: as §1

[5] = tested on: senescent cells; assay: Viability of senescent cells (CellTiter-Glo), Example 17, Table 13; conditions: Homo sapiens, read-out: Survival (%)
Method: Cells induced to undergo senescence by doxorubicin treatment were treated with test compound at designated concentrations and measured using the CellTiter-Glo Luminescent Cell Viability Assay (Promega).

[6] = tested on: senescent A549 cells; assay: Viability of senescent A549 cells (CellTiter-Glo), Example 18, Table 15; conditions: Homo sapiens, A549, read-out: Survival (%)
Method: Senescence-induced cancer cells treated with doxorubicin were treated with the test compound at designated concentrations, and cell viability was measured using the CellTiter-Glo Luminescent Cell Viability Assay (Promega).

COC(=O)[C@]12CCC(C)(C)C[C@H]1[C@H]1C(=O)C[C@@H]3[C@@]4(C)C=C(C#N)C(=O)C(C)(C)[C@@H]4CC[C@@]3(C)[C@]1(C)CC2 [LX-2301]
wound/damage healing improvement [1]: damage treatment and recovery

CC1(C)CC[C@]2(C(=O)NCC(F)(F)F)CC[C@]3(C)[C@H](C(=O)C[C@@H]4[C@@]5(C)C=C(C#N)C(=O)C(C)(C)[C@@H]5CC[C@]43C)[C@@H]2C1 [LX-2302, Dihydro-CDDO-Trifluoroethyl Amide]
wound/damage healing improvement [1]: damage treatment and recovery

CC1(C)CC[C@]2(NS(C)(=O)=O)CC[C@]3(C)[C@H](C(=O)C[C@@H]4[C@@]5(C)C=C(C#N)C(=O)C(C)(C)[C@@H]5CC[C@]43C)[C@@H]2C1 [LX-2306]
wound/damage healing improvement [1]: damage treatment and recovery

COC(=O)C[C@]12CCC(C)(C)C[C@H]1[C@H]1C(=O)C[C@@H]3[C@@]4(C)C=C(C#N)C(=O)C(C)(C)[C@@H]4CC[C@@]3(C)[C@]1(C)CC2 [LX-2307]
wound/damage healing improvement [1]: damage treatment and recovery

C[C@]12C=C(C#N)C(=O)C3(CC=CC3)C1=CC[C@@H]1[C@@H]2CC[C@]2(C)C(=O)CC[C@@H]12 [LX-2308]
wound/damage healing improvement [1]: damage treatment and recovery

CC1(C)CC[C@]2(C(=O)NO)CC[C@]3(C)[C@H](C(=O)C[C@@H]4[C@@]5(C)C=C(C#N)C(=O)C(C)(C)[C@@H]5CC[C@]43C)[C@@H]2C1 [LX-2309]
wound/damage healing improvement [1]: damage treatment and recovery

CONC(=O)[C@]12CCC(C)(C)C[C@H]1[C@H]1C(=O)C=C3[C@@]4(C)C=C(C#N)C(=O)C(C)(C)[C@@H]4CC[C@@]3(C)[C@]1(C)CC2 [LX-2310]
wound/damage healing improvement [1]: damage treatment and recovery

C=C(C)[C@@H]1CC[C@]2(C(=O)NCC)CC[C@]3(C)[C@H](CCC4[C@@]5(C)C=C(C#N)C(=O)C(C)(C)[C@@H]5CC[C@]43C)[C@@H]12 (some centres unmarked) [LX-2311]
wound/damage healing improvement [1]: damage treatment and recovery

C[C@@H]1C(=O)C(C#N)=C[C@]2(C)c3nn(C)c(-c4ccccc4)c3CC[C@@H]12 [LX-2312]
wound/damage healing improvement [1]: damage treatment and recovery

COc1nc(-c2cccnc2)nc2c1CC[C@H]1[C@H](C)C(=O)C(C#N)=C[C@]21C [LX-2315]
wound/damage healing improvement [1]: damage treatment and recovery

COC(=O)[C@]12CCC(C)(C)C[C@H]1[C@H]1C(=O)C=C3[C@@]4(C)C=C(C#N)C(=O)[C@@H](C)[C@@H]4CC[C@@]3(C)[C@]1(C)CC2 [LX-2316]
wound/damage healing improvement [1]: damage treatment and recovery

C[C@@H]1C(=O)C(C#N)=C[C@]2(C)C3=CC(=O)[C@@H]4[C@@H]5CC(C)(C)CC[C@]5(CO)CC[C@@]4(C)[C@]3(C)CC[C@@H]12 [LX-2317]
wound/damage healing improvement [1]: damage treatment and recovery

CC1(C)CC[C@]2(CO)CC[C@]3(C)[C@H](C(=O)C=C4[C@@]5(C)[C@H]6O[C@@]6(C#N)C(=O)C(C)(C)[C@@H]5CC[C@]43C)[C@@H]2C1 [LX-2318]
wound/damage healing improvement [1]: damage treatment and recovery

C[C@@H]1C(=O)[C@]2(C#N)O[C@@H]2[C@]2(C)C3=CC(=O)[C@@H]4[C@@H]5CC(C)(C)CC[C@]5(NC(=O)C(C)(F)F)CC[C@@]4(C)[C@]3(C)CC[C@@H]12 [LX-2319]
wound/damage healing improvement [1]: damage treatment and recovery

Cc1noc([C@]23CCC(C)(C)C[C@H]2[C@H]2C(=O)C=C4[C@@]5(C)C=C(C#N)C(=O)C(C)(C)[C@@H]5CC[C@@]4(C)[C@]2(C)CC3)n1 [LX-2401]
wound/damage healing improvement [1]: damage treatment and recovery

CCNC(=O)CC[C@]12CCC(C)(C)C[C@H]1[C@H]1C(=O)C=C3[C@@]4(C)C=C(C#N)C(=O)C(C)(C)[C@@H]4CC[C@@]3(C)[C@]1(C)CC2 [LX-2402]
wound/damage healing improvement [1]: damage treatment and recovery

CNC(=O)CC[C@]12CCC(C)(C)C[C@H]1[C@H]1C(=O)C=C3[C@@]4(C)C=C(C#N)C(=O)C(C)(C)[C@@H]4CC[C@@]3(C)[C@]1(C)CC2 [LX-2403]
wound/damage healing improvement [1]: damage treatment and recovery

CC1(C)CC[C@]2(CO)CC[C@@]3(C)[C@]4(C)CC[C@H]5C(C)(C)C(=O)C(C#N)=C[C@]5(C)C4=CC(=O)[C@]3(O)C2C1 (some centres unmarked) [LX-2405]
wound/damage healing improvement [1]: damage treatment and recovery

CC1(C)CC[C@]2(C(N)=O)CC[C@@]3(C)[C@]4(C)CC[C@H]5C(C)(C)C(=O)C(C#N)=C[C@]5(C)C4=CC(=O)[C@]3(O)[C@@H]2C1 [LX-2406]
wound/damage healing improvement [1]: damage treatment and recovery

C[C@@H]1C(=O)C(C#N)=C[C@]2(c3ccccc3)c3c(c(-c4cccnc4)nn3C)CC[C@@H]12 [LX-2407, (5aS,6S,9aR)-1,6-dimethyl-7-oxo-9a-phenyl-3-(pyridin-3-yl)-4,5,5a,6,7,9a-hexahydro-1H-benzo[g]indazole-8-carbonitrile]
wound/damage healing improvement [1]: damage treatment and recovery

C[C@@H]1C(=O)C(C#N)=C[C@]2(c3ccccc3)c3c(c(-c4cncnc4)nn3C)CC[C@@H]12 [LX-2408]
wound/damage healing improvement [1]: damage treatment and recovery

C[C@@H]1C(=O)C(C#N)=C[C@]2(C)c3nc(CCO)n(-c4ccccc4)c3CC[C@@H]12 [LX-2409]
wound/damage healing improvement [1]: damage treatment and recovery

CC(O)[C@]1(C)C(=O)C(C#N)=C[C@]2(C)C3=CC(=O)[C@]45OC(=O)[C@@]6(CCC(C)(C)C[C@H]64)CC[C@@]5(C)[C@]3(C)CC[C@@H]12 (some centres unmarked) [LX-2501]
wound/damage healing improvement [1]: damage treatment and recovery

CCC[C@H]1C(=O)C(C#N)=C[C@@]2(C)c3nc(-c4cccc5ccccc45)nc(-c4ccccc4F)c3CC[C@H]12 [LX-2502]
wound/damage healing improvement [1]: damage treatment and recovery

CCC[C@H]1C(=O)C(C#N)=C[C@@]2(C)c3nc(-c4cccc5ncccc45)nc(-c4ccccc4F)c3CC[C@H]12 [LX-2503]
wound/damage healing improvement [1]: damage treatment and recovery

C[C@H]1C(=O)C(C#N)=C[C@@]2(C)c3c(c(-c4ccccc4)nn3-c3ccc(-c4cccc(CO)c4)cc3)CC[C@H]12 [LX-2505]
wound/damage healing improvement [1]: damage treatment and recovery

Cc1cc(-c2ccc(-n3nc(-c4ccccc4F)c4c3[C@]3(C)C=C(C#N)C(=O)[C@H](C)[C@H]3CC4)cc2)cnn1 [LX-2506]
wound/damage healing improvement [1]: damage treatment and recovery

Nc1ccc(/C=C/C(=O)NCc2cc3cc(-c4ccc(C(=O)N5CCC(F)(F)CC5)cc4)cc(-c4ccc(F)cc4)c3o2)cn1 [LX-8812, Padnarsertib]
Femur Ctsk mRNA ([2]; femur, untreated = 100%): 62%
Heart Sur2a mRNA ([2]; heart, untreated = 1.0): 2.0 fold
Joint Col2a1 mRNA ([2]; joint, untreated = 1.0): 2.6 fold
Kidney Agtr1a mRNA ([2]; kidney, untreated = 100%): 51%
Liver IL6 mRNA ([2]; liver, untreated = 100%): 53%
Liver MMP3 mRNA ([2]; liver, untreated = 100%): 42%
Liver p16 mRNA ([2]; liver, untreated = 100%): 59%
Open Field Test Time in Center ([2]; open field test, untreated = 100%): 188%
Skin Col1a1 mRNA ([2]; skin, untreated = 1.0): 3.4 Fold
Skin SDF1 mRNA ([2]; skin, untreated = 1.0): 2.9 fold
Muscle Mass ([2]; untreated 0.64 g): 0.70 g
Fat Mass ([2]; untreated 0.82 g): 0.96 g
Cataract incidence ([2]; untreated 83%): 54%
Lung p16 mRNA ([3]; lung): 67 (±5.6) %
Col1a1 mRNA [3]: 77 (±6.2) %
Liver p16 mRNA ([4]; liver): 63 (±3.9) %
Col1a1 mRNA [4]: 64 (±3.1) %
viability at 1.1 µM [5]: 94.6%
viability at 10 µM [5]: 49.3%
viability at 30 µM [5]: 29.2%
viability at 1.1 µM [6]: 100%
viability at 10 µM [6]: 61.6%
viability at 30 µM [6]: 24.9%
